# Read-outs that look alike come from different tables or passages of the source.
# Columns and labels:
# [1] = human, in vivo; cited from earlier work
# [2] = test system: hormone refractory prostate cancer; conditions: in vivo; cited from earlier work
# [3] = test system: prostate cancer, renal cell carcinoma, or multiple myeloma; conditions: in vivo; cited from earlier work
# [4] = test system: refractory acute myeloid leukemia; conditions: twice weekly administration; cited from earlier work
# [5] = test system: advanced kidney cancer; conditions: after a 12-week treatment period, compared to the placebo group; cited from earlier work
# [6] = test system: refractory ovarian cancer; conditions: in vivo; cited from earlier work
# [7] = test system: advanced stage III or IV non-small cell lung cancer; conditions: progressive disease after standard chemotherapies; cited from earlier work
# [8] = test system: EGF-dependent cell proliferation; conditions: cited from earlier work
# [9] = test system: DU145; assay: gefitinib sensitivity (IC50) of cancer cell line
# [10] = test system: A431; assay: gefitinib sensitivity (IC50) of cancer cell line
# [11] = test system: BT474; assay: gefitinib sensitivity (IC50) of cancer cell line
# [12] = test system: SkOv3; assay: gefitinib sensitivity (IC50) of cancer cell line
# [13] = test system: Akt; conditions: gefitinib concentration of 10 μM, data from FIG. 3 of Moasser et al., cited from earlier work
# [14] = test system: MDA-MB-361; assay: gefitinib sensitivity (IC50) of cancer cell line
# [15] = test system: MDA-MB-453; assay: gefitinib sensitivity (IC50) of cancer cell line
# [16] = test system: SkBr3; assay: gefitinib sensitivity (IC50) of cancer cell line
# [17] = test system: non-small cell lung cancer; conditions: patients with refractory non-small cell lung cancer in whom standard therapy failed; cited from earlier work
# [18] = test system: renal cell carcinoma; conditions: human, in vivo; cited from earlier work
structure (smiles),measurement,setting,value
Cc1oncc1C(=O)Nc1ccc(C(F)(F)F)cc1 [leflunomide],most common / toxic side-effects,[1],"asthenia, nausea, anorexia, and anemia"
same,patients with a decrease in prostate specific antigen of greater than 50%,[2],about 7%
same,patients with partial responses,[2],less than 5%
Cc1cc(C)c(/C=C2\C(=O)Nc3ccccc32)[nH]1 [semaxinib],objective response rates,[3],minimal objective response rates
same,complete responses,[4],1
same,partial responses,[4],7
same,most common / toxic side-effects,[1],"headache, nausea, vomiting, asthenia, pain at the infusion site, phlebitis, change in voice, and fever"
CNC(=O)c1cc(Oc2ccc(NC(=O)Nc3ccc(Cl)c(C(F)(F)F)c3)cc2)ccn1 [sorafenib],patients whose disease did not progress,[5],statistically higher percentage of patients whose disease did not progress
same,most common / toxic side-effects,[1],"skin reactions such as hand-foot syndrome and rash, diarrhea, fatigue, weight loss, and hypertension"
C=CC(=O)Nc1cc2c(Nc3ccc(F)c(Cl)c3)ncnc2cc1OCCCN1CCOCC1 [canertinib],antitumor activity,[6],minimal antitumor activity
CS(=O)(=O)CCNCc1ccc(-c2ccc3ncnc(Nc4ccc(OCc5cccc(F)c5)c(Cl)c4)c3c2)o1 [lapatinib],most common / toxic side-effects,[1],diarrhea and skin rash
C#Cc1cccc(Nc2ncnc3cc(OCCOC)c(OCCOC)cc23)c1 [erlotinib],most common / toxic side-effects,[1],an acneiform skin rash and diarrhea
same,median survival,[7],8.4 months
same,response rate,[7],12%
same,inhibits EGF-dependent cell proliferation,[8],nanomolar concentrations
COc1cc2ncnc(Nc3ccc(F)c(Cl)c3)c2cc1OCCCN1CCOCC1 [gefitinib],CATAG (gefitinib-sensitive),[9],1 (An IC50 <9 μM was considered gefitinib-sensitive (“CATAG” = 1))
same,CATAG (gefitinib-sensitive),[10],1 (An IC50 <9 μM was considered gefitinib-sensitive (“CATAG” = 1))
same,CATAG (gefitinib-sensitive),[11],1 (An IC50 <9 μM was considered gefitinib-sensitive (“CATAG” = 1))
same,CATAG (gefitinib-sensitive),[12],1 (An IC50 <9 μM was considered gefitinib-sensitive (“CATAG” = 1))
same,Akt (level of Akt activity),[13]; A431,2
same,Akt (level of Akt activity),[13]; A549,85
same,Akt (level of Akt activity),[13]; BT474,10
same,Akt (level of Akt activity),[13]; Colo205,105
same,Akt (level of Akt activity),[13]; DU145,35
same,Akt (level of Akt activity),[13]; DU4475,105
same,Akt (level of Akt activity),[13]; MCF-7,70
same,Akt (level of Akt activity),[13]; MDA-MB-361,20
same,Akt (level of Akt activity),[13]; MDA-MB-453,40
same,Akt (level of Akt activity),[13]; MDA-MB-468,90
same,Akt (level of Akt activity),[13]; MDA-MIB-231,70
same,Akt (level of Akt activity),[13]; PC3,55
same,Akt (level of Akt activity),[13]; SkBr3,2
same,Akt (level of Akt activity),[13]; SkOv3,40
same,Akt (level of Akt activity),[13]; T24,90
same,Akt (level of Akt activity),[13]; T47D,85
same,Akt (level of Akt activity),[13]; ZR75,85
same,CATAG (gefitinib-sensitive),[14],1 (An IC50 <9 μM was considered gefitinib-sensitive (“CATAG” = 1))
same,CATAG (gefitinib-sensitive),[15],1 (An IC50 <9 μM was considered gefitinib-sensitive (“CATAG” = 1))
same,CATAG (gefitinib-sensitive),[16],1 (An IC50 <9 μM was considered gefitinib-sensitive (“CATAG” = 1))
same,response rate,[17],about 10%
Clc1ccc(Nc2nnc(Cc3ccncc3)c3ccccc23)cc1 [vatalanib],patients with minor responses,[18],15%
same,patients with partial responses,[18],5%
